Measurements taken from patent publication US7601746B2 (Shionogi & Co., Ltd., priority 2003, dated 2009).

Biological target: T1, human TPO receptor (hTPOR) (Homo sapiens, UniProt P40238)
T1 construct: expressed in transfected cells; host or cells: BaF-B03 (murine IL-3 dependent cell line)
T1 sequence (P40238 26-635): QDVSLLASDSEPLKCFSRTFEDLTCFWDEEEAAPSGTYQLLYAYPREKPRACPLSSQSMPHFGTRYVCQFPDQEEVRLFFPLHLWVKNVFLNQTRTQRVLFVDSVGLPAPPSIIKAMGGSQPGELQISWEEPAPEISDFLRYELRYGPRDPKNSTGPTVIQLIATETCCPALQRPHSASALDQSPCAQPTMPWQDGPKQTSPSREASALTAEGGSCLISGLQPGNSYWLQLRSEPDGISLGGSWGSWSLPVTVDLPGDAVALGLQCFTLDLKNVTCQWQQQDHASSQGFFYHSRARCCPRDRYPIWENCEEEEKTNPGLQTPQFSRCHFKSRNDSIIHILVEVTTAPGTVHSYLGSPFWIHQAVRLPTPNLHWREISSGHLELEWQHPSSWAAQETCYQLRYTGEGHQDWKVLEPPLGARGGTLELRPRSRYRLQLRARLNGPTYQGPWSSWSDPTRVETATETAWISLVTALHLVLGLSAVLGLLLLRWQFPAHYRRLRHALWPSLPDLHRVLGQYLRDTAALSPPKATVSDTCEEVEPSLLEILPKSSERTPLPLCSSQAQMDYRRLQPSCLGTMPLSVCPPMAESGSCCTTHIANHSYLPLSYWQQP
Assay: Thrombopoietic activity: proliferation of TPO dependent BaF/hTPOR cells (WST-1, absorbance at 450 nm)
Format: cell-based
Conditions: 20 h + 4 h WST-1, ED50 = half concentration of the concentration showing the maximum thrombopoietic activity, Table 1
Source text: The TPO dependent BaF/hTPOR cell line which was established by introducing human TPO receptor (hTPOR) into BaF-B03 cells according to Collins et al (J. Cell. Physiol., 137:293-298 (1988)) was used to test the thrombopoietic activity of the present compound. The DNA sequences and encoded peptide sequences for human hTPOR have been described by Vigon et al (Proc. Natl. Acad. Sci. USA, 89:5640-5644 (1992)). TPO dose not have any ability to support proliferation of interlukin-3 dependent parental cell line BaF-B03. BAF/hTPOR cells were maintained in RPMI medium and WEHI-3B conditioned medium as a source of murine interleukin-3 (IL-3). These cells were washed and resuspended in RPMI medium without a source of murine IL-3 and seeded into each well of 96-well microtiter plates at a density of 5×10^4 cells per well in the absence or presence of various concentration of hTPO or the present compound. After incubation at 37° C. for 20 hours in the 5% CO2 incubator, 10% WST-1 reagent (Takara Biomedicals, Japan) was added to each wells and the cells were further incubated for 4 hours. The absorbance at 450 nm was measured. Tables 1 and 2 exemplify the ED50 for tested compounds of the present invention, wherein the ED50 is the half concentration of the concentration showing the maximum thrombopoietic activity.

| SMILES | EC50 [nM] |
| --- | --- |
| CCCCCCc1cccc2c1OCc1sc(NC(=O)c3cc(Cl)c(/C=C(\C)C(=O)O)c(Cl)c3)nc1-2 [Compound A1316, (E)-3-[2,6-dichloro-4-(6-hexyl-4H-chromeno[4,3-d]thiazol-2-ylcabamoyl)phenyl]-2-methylacrylic acid] | 5.29 |
| C/C(=C\c1c(Cl)cc(C(=O)Nc2nc3c(s2)COc2c(CCC(C)(C)C)cccc2-3)cc1Cl)C(=O)O [Compound A1317, (E)-3-{2,6-dichloro-4-[6-(3,3-dimethylbutyl)-4H-chromeno[4,3-d]thiazol-2-ylcabamoyl]phenyl}-2-methylacrylic acid] | 15.1 |
| CCCCCC(OC)c1cccc(-c2csc(NC(=O)c3cc(F)c(C=C(C)C(=O)O)c(F)c3)n2)c1F (centres unmarked) [Compound B1, 3-(2,6-difluoro-4-{4-[2-fluoro-3-(1-methyloxyhexyl)phenyl]thiazol-2-ylcarbamoyl}phenyl)-2-methylacrylic acid] | 2.2 |
| CC(=Cc1c(F)cc(C(=O)Nc2nc(-c3cccc(CCC(C)(C)C)c3F)cs2)cc1F)C(=O)O [Compound B2, 3-(2,6-difluoro-4-{4-[3-(3,3-dimethylbutyl)-2-fluorophenyl]thiazol-2-ylcarbamoyl}phenyl)-2-methylacrylic acid] | 4 |
| CCOC(c1cccc(-c2csc(NC(=O)c3cc(F)c(C=C(C)C(=O)O)c(F)c3)n2)c1F)C1CCCCC1 (centres unmarked) [Compound B6, 3-(4-{4-[3-(1-cyclohexyl-1-ethyloxymethyl)-2-fluorophenyl]thiazol-2-ylcarbamoyl}-2,6-difluorophenyl)-2-methylacrylic acid] | 2.4 |
| COC(c1cccc(-c2csc(NC(=O)c3cc(F)c(C=C(C)C(=O)O)c(F)c3)n2)c1F)(C(C)C)C(C)C [Compound B7, 3-(2,6-difluoro-4-{4-[2-fluoro-3-(2,4-dimethyl-3-methyloxy-3-pentyl)phenyl]thiazol-2-ylcarbamoyl}phenyl)-2-methylacrylic acid] | 3.6 |
| CCCC(CCC)(OC)c1cccc(-c2csc(NC(=O)c3cc(F)c(C=C(C)C(=O)O)c(F)c3)n2)c1F [Compound B8] | 4 |
| CCCCCCCCCC(OC)c1cccc(-c2csc(NC(=O)c3cc(F)c(C=C(C)C(=O)O)c(F)c3)n2)c1F (centres unmarked) [Compound B9, 3-(2,6-difluoro-4-{4-[2-fluoro-3-(1-methyloxydecyl)phenyl]thiazol-2-ylcarbamoyl}phenyl)-2-methylacrylic acid] | 1.6 |
| CCOC(c1cccc(-c2csc(NC(=O)c3cc(F)c(C=C(C)C(=O)O)c(F)c3)n2)c1F)C(C)(C)C (centres unmarked) [Compound B10, 3-(2,6-difluoro-4-{4-[3-(1-ethyloxy-2,2-dimethylpropyl)-2-fluorophenyl]thiazol-2-ylcarbamoyl}phenyl)-2-methylacrylic acid] | 1.9 |
| COC(CCC(C)C)c1cccc(-c2csc(NC(=O)c3cc(F)c(C=C(C)C(=O)O)c(F)c3)n2)c1F (centres unmarked) [Compound B11, 3-(2,6-difluoro-4-{4-[2-fluoro-3-(1-methyloxy-4-methylpentyl)phenyl]thiazol-2-ylcarbamoyl}phenyl)-2-methylacrylic acid] | 0.81 |
| CCC(CCCc1cccc(-c2csc(NC(=O)c3cc(F)c(C=C(C)C(=O)O)c(F)c3)n2)c1F)OC (centres unmarked) [Compound B12, 3-(2,6-difluoro-4-{4-[2-fluoro-3-(4-methyloxyhexyl)phenyl]thiazol-2-ylcarbamoyl}phenyl)-2-methylacrylic acid] | 2.1 |
| COC(c1cccc(-c2csc(NC(=O)c3cc(F)c(C=C(C)C(=O)O)c(F)c3)n2)c1F)C(C)(C)C (centres unmarked) [Compound B13, 3-(2,6-difluoro-4-{4-[2-fluoro-3-(1-methyloxy-2,2-dimethylpropyl)phenyl]thiazol-2-ylcarbamoyl}phenyl)-2-methylacrylic acid] | 1 |
| CCCCCOC(c1cccc(-c2csc(NC(=O)c3cc(F)c(C=C(C)C(=O)O)c(F)c3)n2)c1F)C1CCCCC1 (centres unmarked) [Compound B14, 3-(4-{4-[3-(1-cyclohexyl-1-n-pentyloxymethyl)-2-fluorophenyl]thiazol-2-ylcarbamoyl}-2,6-difluorophenyl)-2-methylacrylic acid] | 0.73 |
| CCCCCOC(c1cccc(-c2csc(NC(=O)c3cc(F)c(C=C(C)C(=O)O)c(F)c3)n2)c1F)C(C)(C)C (centres unmarked) [Compound B15, 3-(2,6-difluoro-4-{4-[3-(2,2-dimethyl-1-n-pentyloxypropyl)-2-fluorophenyl]thiazol-2-ylcarbamoyl}phenyl)-2-methylacrylic acid] | 0.73 |

Next, values leading:

| EC50 [nM] | SMILES |
| --- | --- |
| 0.77 | CCCCCOC(CCSC)c1cccc(-c2csc(NC(=O)c3cc(F)c(C=C(C)C(=O)O)c(F)c3)n2)c1F (centres unmarked) [Compound B16, 3-(2,6-difluoro-4-{4-[2-fluoro-3-(3-methylthio-1-n-pentyloxypropyl)phenyl]thiazol-2-ylcarbamoyl}phenyl)-2-methylacrylic acid] |
| 0.73 | CCCCCOC(CC)c1cccc(-c2csc(NC(=O)c3cc(F)c(C=C(C)C(=O)O)c(F)c3)n2)c1F (centres unmarked) [Compound B19, 3-(2,6-difluoro-4-{4-[2-fluoro-3-(1-n-pentyloxypropyl)phenyl]thiazol-2-ylcarbamoyl}phenyl)-2-methylacrylic acid] |
| 0.81 | CC(=Cc1c(F)cc(C(=O)Nc2nc(-c3cccc(CCCOCC(C)(C)C)c3F)cs2)cc1F)C(=O)O [Compound B20] |
| 0.67 | CCOCCCCOC(c1cccc(-c2csc(NC(=O)c3cc(F)c(C=C(C)C(=O)O)c(F)c3)n2)c1F)C1CCCCC1 (centres unmarked) [Compound B21, 3-[4-(4-{3-[1-cyclohexyl-1-(4-ethyloxybutyloxy)methyl]-2-fluorophenyl]thiazol-2-ylcarbamoyl}-2,6-difluorophenyl)-2-methylacrylic acid] |
| 1.14 | CCOCCCCOC(CC)c1cccc(-c2csc(NC(=O)c3cc(F)c(C=C(C)C(=O)O)c(F)c3)n2)c1F (centres unmarked) [Compound B22, 3-[2,6-difluoro-4-(4-{3-[1-(4-ethyloxybutyloxy)propyl]-2-fluorophenyl}thiazol-2-ylcarbamoyl)phenyl]-2-methylacrylic acid] |
| 1.23 | CCCCCCC(OC)c1cccc(-c2csc(NC(=O)c3cc(F)c(C=C(C)C(=O)O)c(F)c3)n2)c1F (centres unmarked) [Compound B23, 3-(2,6-difluoro-4-{4-[2-fluoro-3-(1-methyloxyheptyl)phenyl]thiazol-2-ylcarbamoyl}phenyl)-2-methylacrylic acid] |
| 1.97 | CCCC(OCC)c1cccc(-c2csc(NC(=O)c3cc(F)c(C=C(C)C(=O)O)c(F)c3)n2)c1F (centres unmarked) [Compound B24, 3-(2,6-difluoro-4-{4-[3-(1-ethyloxybutyl)-2-fluorophenyl]thiazol-2-ylcarbamoyl}phenyl)-2-methylacrylic acid] |
| 0.93 | CCCCCCCC(OC)c1cccc(-c2csc(NC(=O)c3cc(F)c(C=C(C)C(=O)O)c(F)c3)n2)c1F (centres unmarked) [Compound B25, 3-(2,6-difluoro-4-{4-[2-fluoro-3-(1-methyloxyoctyl)phenyl]thiazol-2-ylcarbamoyl}phenyl)-2-methylacrylic acid] |
| 0.39 | CCCCCOC(CCCC)c1cccc(-c2csc(NC(=O)c3cc(F)c(C=C(C)C(=O)O)c(F)c3)n2)c1F (centres unmarked) [Compound B26, 3-(2,6-difluoro-4-{4-[2-fluoro-3-(1-n-pentyloxypentyl)phenyl]thiazol-2-ylcarbamoyl}phenyl)-2-methylacrylic acid] |
| 0.75 | CCCCC(OCC)c1cccc(-c2csc(NC(=O)c3cc(F)c(C=C(C)C(=O)O)c(F)c3)n2)c1F (centres unmarked) [Compound B27, 3-(2,6-difluoro-4-{4-[3-(1-ethyloxypentyl)-2-fluorophenyl]thiazol-2-ylcarbamoyl}phenyl)-2-methylacrylic acid] |
| 0.79 | CCCCCCCCC(OC)c1cccc(-c2csc(NC(=O)c3cc(F)c(C=C(C)C(=O)O)c(F)c3)n2)c1F (centres unmarked) [Compound B28, 3-(2,6-difluoro-4-{4-[2-fluoro-3-(1-methyloxynonyl)phenyl]thiazol-2-ylcarbamoyl}phenyl)-2-methylacrylic acid] |
| 0.78 | CCCCCCCCOC(C)c1cccc(-c2csc(NC(=O)c3cc(F)c(C=C(C)C(=O)O)c(F)c3)n2)c1F (centres unmarked) [Compound B30, 3-(2,6-difluoro-4-{4-[2-fluoro-3-(1-n-octyloxyethyl)phenyl]thiazol-2-ylcarbamoyl}phenyl)-2-methylacrylic acid] |
